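Tested at 5 concentrations; 48 h exposure; 96-well plates; endpoints linearly interpolated, else capped at highest concentration. GI50 is the concentration that inhibits growth by half.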 Active and inactive are the calls of the source. Cut-off read from the data, not from the text of the source: active = GI50 up to about 1.1 µM and inactive = higher.
Key:
Assay in all cases: DTP human tumour cell line panel, 48 h
[1] = tested on: U-251
[2] = tested on: OVCAR-8
[3] = tested on: ACHN
[4] = tested on: OVCAR-4
[5] = tested on: SF-268
[6] = tested on: MDA-MB-231
[7] = tested on: MDA-N
[8] = tested on: NCI/ADR-RES
[9] = tested on: HOP-92
[10] = tested on: M14
[11] = tested on: OVCAR-5
[12] = tested on: NCI-H226
[13] = tested on: RXF 393
[14] = tested on: IGROV-1
[15] = tested on: HT-29
[16] = tested on: Malme-3M
[17] = tested on: CCRF-CEM
[18] = tested on: HOP-62
[19] = tested on: SW-620
[20] = tested on: OVCAR-3

Compound	GI50 [1]	GI50 [2]	GI50 [3]	GI50 [4]	GI50 [5]	GI50 [6]	GI50 [7]	GI50 [8]	GI50 [9]	GI50 [10]	GI50 [11]	GI50 [12]	GI50 [13]	GI50 [14]	GI50 [15]	GI50 [16]	GI50 [17]	GI50 [18]	GI50 [19]	GI50 [20]
O=S1(=O)OCCOS(=O)(=O)C1(F)Cc1ccccc1	> 100 µM (inactive)	> 100 µM (inactive)	> 100 µM (inactive)	> 100 µM (inactive)	> 100 µM (inactive)	> 100 µM (inactive)	> 100 µM (inactive)	> 100 µM (inactive)	> 100 µM (inactive)	> 100 µM (inactive)	> 100 µM (inactive)	> 100 µM (inactive)	> 100 µM (inactive)	> 100 µM (inactive)	> 100 µM (inactive)	> 100 µM (inactive)	> 100 µM (inactive)	> 100 µM (inactive)	> 100 µM (inactive)	> 100 µM (inactive)
CCOC(=O)C(NCc1cccc(C(F)(F)F)c1)(NC(=O)CC)C(F)(F)F (stereo not given)	> 100 µM (inactive)	> 100 µM (inactive)	> 100 µM (inactive)	> 100 µM (inactive)	> 100 µM (inactive)	31.8 µM (inactive)	> 100 µM (inactive)	> 100 µM (inactive)	71 µM (inactive)	> 100 µM (inactive)	> 100 µM (inactive)	> 100 µM (inactive)	5.52 µM (inactive)	18 µM (inactive)	> 100 µM (inactive)	> 100 µM (inactive)	> 100 µM (inactive)	> 100 µM (inactive)	> 100 µM (inactive)	> 100 µM (inactive)
C=CCn1c(-c2ccc(Cl)cc2Cl)cs/c1=N\c1c(C)n(C)n(-c2ccccc2)c1=O	12.5 µM (inactive)	5.81 µM (inactive)	10 µM (inactive)	8.11 µM (inactive)	15.7 µM (inactive)	13.8 µM (inactive)	8.55 µM (inactive)	6.71 µM (inactive)	17.9 µM (inactive)	11.3 µM (inactive)	16.4 µM (inactive)	15.7 µM (inactive)	14.5 µM (inactive)	17 µM (inactive)	10.1 µM (inactive)	15.9 µM (inactive)	6.92 µM (inactive)	15.2 µM (inactive)	15.8 µM (inactive)	10.7 µM (inactive)
CC(C)C(Cl)CCC(C)(Cl)C(=O)CBr (stereo not given)	12.7 µM (inactive)	3.37 µM (inactive)	7.19 µM (inactive)	4.6 µM (inactive)	20.7 µM (inactive)	5.37 µM (inactive)	1.95 µM (inactive)	6.81 µM (inactive)	10 µM (inactive)	3.43 µM (inactive)	12.8 µM (inactive)	17.8 µM (inactive)	2.44 µM (inactive)	6.67 µM (inactive)	4.36 µM (inactive)	9.57 µM (inactive)	0.331 µM (active)	8.22 µM (inactive)	2 µM (inactive)	6.18 µM (inactive)
COc1ccc(C)c2c1N[C@](C)([C@]1(C)Nc3c(OC)ccc(C)c3C1=O)C2=O	> 100 µM (inactive)	49.4 µM (inactive)	> 100 µM (inactive)	> 100 µM (inactive)	51.6 µM (inactive)	> 100 µM (inactive)	> 100 µM (inactive)	> 100 µM (inactive)	38 µM (inactive)	> 100 µM (inactive)	> 100 µM (inactive)	> 100 µM (inactive)	> 100 µM (inactive)	> 100 µM (inactive)	> 100 µM (inactive)	> 100 µM (inactive)	> 100 µM (inactive)	94.4 µM (inactive)	> 100 µM (inactive)	> 100 µM (inactive)
O=C(CNc1ccc2c(=S)c3ccccc3[nH]c2c1)Nc1ccccc1-c1ccccc1NC(=O)CNc1ccc2c(=S)c3ccccc3[nH]c2c1	19.6 µM (inactive)	23.9 µM (inactive)	15.8 µM (inactive)	3.94 µM (inactive)	22 µM (inactive)	22.7 µM (inactive)	18.1 µM (inactive)	31.2 µM (inactive)	23 µM (inactive)	16.3 µM (inactive)	28.7 µM (inactive)	26 µM (inactive)	27 µM (inactive)	20.2 µM (inactive)	19.7 µM (inactive)	15.7 µM (inactive)	2.73 µM (inactive)	24.3 µM (inactive)	18.4 µM (inactive)	24.8 µM (inactive)
Cc1ccc2c(O)cc(-c3cccc4ccccc34)nc2n1	0.0166 µM (active)	0.032 µM (active)	0.102 µM (active)	0.495 µM (active)	0.762 µM (active)	0.0522 µM (active)	< 0.01 µM (active)	0.0186 µM (active)	0.0127 µM (active)	0.0247 µM (active)	0.0375 µM (active)	0.0398 µM (active)	0.497 µM (active)	0.0627 µM (active)	< 0.0116 µM (active)	< 0.01 µM (active)	0.0251 µM (active)	1.88 µM (inactive)	0.0203 µM (active)	< 0.0149 µM (active)
CC(=O)Oc1ccc(C(c2ccc(OC(C)=O)cc2)c2ccccn2)cc1 [BISACODYL]	> 97.5 µM (inactive)	1.4 µM (inactive)	78.7 µM (inactive)	0.146 µM (active)	> 100 µM (inactive)	54.7 µM (inactive)	> 87.9 µM (inactive)	1.32 µM (inactive)	36.8 µM (inactive)	> 93.5 µM (inactive)	22.1 µM (inactive)	87.3 µM (inactive)	13.8 µM (inactive)	71.6 µM (inactive)	> 93.5 µM (inactive)	78.5 µM (inactive)	71.1 µM (inactive)	> 92.7 µM (inactive)	> 100 µM (inactive)	0.219 µM (active)
O=C(/C=C/c1ccc(O)cc1)NCCc1ccc(O)cc1 [N-P-COUMAROYL TYRAMINE]	> 12.5 µM (inactive)	> 12.5 µM (inactive)	3.49 µM (inactive)	8.63 µM (inactive)	9.57 µM (inactive)	> 12.5 µM (inactive)	> 12.5 µM (inactive)	3.62 µM (inactive)	5.14 µM (inactive)	> 12.5 µM (inactive)	> 12.5 µM (inactive)	> 12.5 µM (inactive)	> 12.5 µM (inactive)	8.3 µM (inactive)	> 12.5 µM (inactive)	> 12.5 µM (inactive)	2.99 µM (inactive)	> 12.5 µM (inactive)	> 12.5 µM (inactive)	8.93 µM (inactive)

From ChEMBL document CHEMBL1201862, “PubChem BioAssay data set” (2004)
